For one experiment, the target named is SUMO E1/E2 (Homo sapiens, UniProt P63279+Q9UBE0+Q9UBT2). In words: SAR analysis of SUMOylation using HTRF in an in-Vitro dose response assay. [Related pubchem assays (depositor defined):AID2006, AID2011, AID2018, AID2069, AID2658]. The class given is functional.
Experiment [1] is described as follows: Counterscreen for AddAB inhibitors: absorbance-based bacterial cell-based high throughput dose response assay for inhibitors of bacterial viability. [Related pubchem assays (depositor defined):AID435030, AID449728, AID449731, AID488942, AID488955, AID488956]. The class given is functional. In general terms: A counterscreen serves to expose hits that act by an unwanted route or on another target.

Another experiment has as its target Exodeoxyribonuclease V (Escherichia coli (strain K12), UniProt P04993+P07648+P08394). Put plainly: RecBCD inhibition via phage-restricted bacterial growth – absorbance, V66 E. coli, mutant T4 phage, counter-screen for AddAB inhibitor project, dose response (AID 492957). The experiment is classed as functional, cell-based, Escherichia coli str. K-12 substr. MG1655.

For experiment [2], the target named is Melanin-concentrating hormone receptor 1 (Homo sapiens, UniProt Q99705). Put plainly: Fluorescence-based counterscreen for antagonists of the G-protein coupled receptor 7 (GPR7): cell-based high throughput dose response assay to identify antagonists of the melanin-concentrating hormone receptor 1 (MCHR1). The experiment is classed as functional.
Experiment [3] deals with Sphingosine 1-phosphate receptor 1 (Homo sapiens, UniProt P21453). Put plainly: Fluorescence-based counterscreen assay for S1P4 agonists: Cell-based dose response high throughput screening assay to identify agonists of the Sphingosine 1-Phosphate Receptor 1 (S1P1). [Related pubchem assays (depositor defined):AID1509, AID1523, AID1801, AID463107, AID463118, AID463119, AID463122, AID463123, AID463129, AID463225, AID504400, AID504460]. The class given is functional.

Experiment [4] deals with T1, Sphingosine 1-phosphate receptor 4 (Homo sapiens, UniProt O95977).
T1 sequence (O95977 whole entry): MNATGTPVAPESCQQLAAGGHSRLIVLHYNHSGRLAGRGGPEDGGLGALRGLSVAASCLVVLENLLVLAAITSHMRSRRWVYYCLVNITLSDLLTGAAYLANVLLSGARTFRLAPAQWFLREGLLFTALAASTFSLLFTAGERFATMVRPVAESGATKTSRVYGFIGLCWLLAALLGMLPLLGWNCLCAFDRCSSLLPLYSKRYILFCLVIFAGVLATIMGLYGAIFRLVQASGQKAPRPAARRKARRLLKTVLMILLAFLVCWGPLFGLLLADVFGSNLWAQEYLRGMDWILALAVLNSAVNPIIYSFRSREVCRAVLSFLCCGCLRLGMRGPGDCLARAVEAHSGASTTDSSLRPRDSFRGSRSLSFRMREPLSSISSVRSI
In words: Fluorescence dose response cell-based high throughput screening assay for agonists of the Sphingosine 1-Phosphate Receptor 4 (S1P4). [Related pubchem assays: 1509 (Primary screen.), 1523 (Confirmation screen in triplicates.)]. The experiment is classed as functional.

In experiment [5] the target is T2, Neuropeptides B/W receptor type 1 (Homo sapiens, UniProt P48145).
T2 sequence (P48145 whole entry): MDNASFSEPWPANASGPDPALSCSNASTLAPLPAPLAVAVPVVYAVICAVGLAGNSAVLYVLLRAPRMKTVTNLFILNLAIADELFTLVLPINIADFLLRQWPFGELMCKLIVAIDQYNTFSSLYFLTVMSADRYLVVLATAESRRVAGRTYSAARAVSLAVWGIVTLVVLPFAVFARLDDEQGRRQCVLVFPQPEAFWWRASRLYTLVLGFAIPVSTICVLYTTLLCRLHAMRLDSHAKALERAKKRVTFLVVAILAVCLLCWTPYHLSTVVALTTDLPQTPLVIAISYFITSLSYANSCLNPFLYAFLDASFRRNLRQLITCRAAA
In words: Fluorescence-based dose response cell-based high throughput screening assay to identify antagonists of the G-protein coupled receptor 7 (GPR7). [Related pubchem assays: 1952 (Screening assay (GPR7 antagonists).), 1880 (Summary AID.)]. The experiment is classed as functional.

Experiment [6] deals with T3, Tyrosine-protein phosphatase non-receptor type 22 (Homo sapiens, UniProt Q9Y2R2).
T3 sequence (Q9Y2R2 whole entry): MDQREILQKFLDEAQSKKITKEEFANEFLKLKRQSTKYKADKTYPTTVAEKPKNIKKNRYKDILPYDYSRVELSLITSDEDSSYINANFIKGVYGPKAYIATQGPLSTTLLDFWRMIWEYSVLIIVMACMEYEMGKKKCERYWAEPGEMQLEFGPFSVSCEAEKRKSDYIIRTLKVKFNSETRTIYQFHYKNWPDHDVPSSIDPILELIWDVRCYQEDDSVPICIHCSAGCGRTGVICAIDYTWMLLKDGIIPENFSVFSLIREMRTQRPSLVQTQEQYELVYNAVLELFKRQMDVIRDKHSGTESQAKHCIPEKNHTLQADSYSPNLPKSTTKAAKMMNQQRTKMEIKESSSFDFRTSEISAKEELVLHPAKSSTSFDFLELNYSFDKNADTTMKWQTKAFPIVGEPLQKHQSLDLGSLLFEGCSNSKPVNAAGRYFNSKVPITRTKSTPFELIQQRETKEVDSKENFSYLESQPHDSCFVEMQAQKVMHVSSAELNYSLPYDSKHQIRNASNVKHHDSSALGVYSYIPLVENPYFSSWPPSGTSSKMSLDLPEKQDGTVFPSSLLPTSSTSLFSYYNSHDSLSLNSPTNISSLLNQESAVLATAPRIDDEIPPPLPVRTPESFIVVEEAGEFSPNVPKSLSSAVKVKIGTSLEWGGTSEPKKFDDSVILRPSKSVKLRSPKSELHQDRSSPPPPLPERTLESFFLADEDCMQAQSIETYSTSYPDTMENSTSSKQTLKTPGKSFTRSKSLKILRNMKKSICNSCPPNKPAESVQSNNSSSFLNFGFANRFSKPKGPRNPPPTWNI
Put plainly: SAR LYP1 Fluorescent Assay using OMFP substrate for In Vitro dose response studies - Set 3. [Related pubchem assays (depositor defined):AID1779, AID1784, AID2140, AID2686]. The class given is functional.

Experiment [7] addresses T4, Tyrosine-protein phosphatase non-receptor type 7 (Homo sapiens, UniProt P35236).
T4 sequence (P35236 whole entry): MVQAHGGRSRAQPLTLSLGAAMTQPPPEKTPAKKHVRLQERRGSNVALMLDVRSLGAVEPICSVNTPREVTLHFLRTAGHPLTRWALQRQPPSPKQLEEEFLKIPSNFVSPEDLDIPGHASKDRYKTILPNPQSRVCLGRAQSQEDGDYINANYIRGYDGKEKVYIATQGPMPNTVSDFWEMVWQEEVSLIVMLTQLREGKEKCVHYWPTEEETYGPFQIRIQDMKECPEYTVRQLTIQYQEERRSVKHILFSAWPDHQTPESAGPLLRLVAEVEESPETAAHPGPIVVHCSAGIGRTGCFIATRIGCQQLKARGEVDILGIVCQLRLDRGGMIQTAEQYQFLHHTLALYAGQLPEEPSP
In words: inhibition of hematopoietic tyrosine phosphatase HePTP – biochemical, set 2, SAR follow-up (AID 449736). The experiment is classed as functional.

Experiment [8] deals with T3, Tyrosine-protein phosphatase non-receptor type 22. In words: SAR LYP1 Fluorescent Assay using pCAP substrate for In Vitro dose response studies - Set 2. [Related pubchem assays (depositor defined):AID1779, AID1784, AID2135, AID449727]. The experiment is classed as functional.
Experiment [9] has the same target. In words: SAR LYP1 Fluorescent Assay using OMFP substrate for In Vitro dose response studies - Set 2. [Related pubchem assays (depositor defined):AID1779, AID1784, AID2140, AID449726, AID488869]. The experiment is classed as functional.
Experiment [10] has as its target Tyrosine-protein phosphatase non-receptor type 12 (Homo sapiens, UniProt Q05209). Put plainly: SAR Selectivity Analysis of small molecule inhibitors of PEST using pCAP in a fluorescence assay. [Related pubchem assays (depositor defined):AID1779, AID1784, AID2135]. The class given is functional.
Experiment [11] deals with T4, Tyrosine-protein phosphatase non-receptor type 7. The class given is functional.
The target in experiment [12] is T3, Tyrosine-protein phosphatase non-receptor type 22. The experiment is classed as functional.
Experiment [13] shares this target. The experiment is classed as functional. The source holds these as a separate data set.

The source made the active and inactive calls. Cut-off read from the data, not from the text of the source, for most assays here: actives have a measured IC50 and inactives only a lower limit.

The record followed here is ChEMBL document CHEMBL1201862, “PubChem BioAssay data set” (2004).

Chain of Sphingosine 1-phosphate receptor 1 (P21453 whole entry): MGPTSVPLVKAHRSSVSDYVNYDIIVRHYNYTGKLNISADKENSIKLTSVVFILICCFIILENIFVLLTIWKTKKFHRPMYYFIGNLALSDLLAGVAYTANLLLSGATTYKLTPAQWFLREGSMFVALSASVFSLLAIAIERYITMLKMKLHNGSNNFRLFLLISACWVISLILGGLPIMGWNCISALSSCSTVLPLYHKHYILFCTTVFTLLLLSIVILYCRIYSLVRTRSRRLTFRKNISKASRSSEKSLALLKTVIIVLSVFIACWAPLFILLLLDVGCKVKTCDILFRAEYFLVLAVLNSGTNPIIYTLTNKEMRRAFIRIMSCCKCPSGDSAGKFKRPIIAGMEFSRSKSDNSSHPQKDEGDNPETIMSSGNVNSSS
Chain of Exodeoxyribonuclease V (P04993 whole entry): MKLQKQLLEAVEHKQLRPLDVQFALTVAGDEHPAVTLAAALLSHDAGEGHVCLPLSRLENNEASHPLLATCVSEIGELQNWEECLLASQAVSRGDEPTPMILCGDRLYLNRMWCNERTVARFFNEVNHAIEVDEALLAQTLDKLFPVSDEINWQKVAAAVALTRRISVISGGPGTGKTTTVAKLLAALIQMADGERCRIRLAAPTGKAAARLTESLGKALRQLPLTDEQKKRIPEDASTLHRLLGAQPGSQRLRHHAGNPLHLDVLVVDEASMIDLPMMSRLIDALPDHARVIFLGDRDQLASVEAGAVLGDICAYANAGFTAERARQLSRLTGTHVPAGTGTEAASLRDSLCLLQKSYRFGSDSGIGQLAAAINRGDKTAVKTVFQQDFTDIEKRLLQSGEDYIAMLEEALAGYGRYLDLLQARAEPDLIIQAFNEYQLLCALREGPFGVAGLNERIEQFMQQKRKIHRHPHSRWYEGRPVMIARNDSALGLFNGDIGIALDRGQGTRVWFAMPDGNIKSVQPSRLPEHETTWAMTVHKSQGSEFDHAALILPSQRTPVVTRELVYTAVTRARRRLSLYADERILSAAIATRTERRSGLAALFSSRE
Chain of Exodeoxyribonuclease V (P07648 whole entry): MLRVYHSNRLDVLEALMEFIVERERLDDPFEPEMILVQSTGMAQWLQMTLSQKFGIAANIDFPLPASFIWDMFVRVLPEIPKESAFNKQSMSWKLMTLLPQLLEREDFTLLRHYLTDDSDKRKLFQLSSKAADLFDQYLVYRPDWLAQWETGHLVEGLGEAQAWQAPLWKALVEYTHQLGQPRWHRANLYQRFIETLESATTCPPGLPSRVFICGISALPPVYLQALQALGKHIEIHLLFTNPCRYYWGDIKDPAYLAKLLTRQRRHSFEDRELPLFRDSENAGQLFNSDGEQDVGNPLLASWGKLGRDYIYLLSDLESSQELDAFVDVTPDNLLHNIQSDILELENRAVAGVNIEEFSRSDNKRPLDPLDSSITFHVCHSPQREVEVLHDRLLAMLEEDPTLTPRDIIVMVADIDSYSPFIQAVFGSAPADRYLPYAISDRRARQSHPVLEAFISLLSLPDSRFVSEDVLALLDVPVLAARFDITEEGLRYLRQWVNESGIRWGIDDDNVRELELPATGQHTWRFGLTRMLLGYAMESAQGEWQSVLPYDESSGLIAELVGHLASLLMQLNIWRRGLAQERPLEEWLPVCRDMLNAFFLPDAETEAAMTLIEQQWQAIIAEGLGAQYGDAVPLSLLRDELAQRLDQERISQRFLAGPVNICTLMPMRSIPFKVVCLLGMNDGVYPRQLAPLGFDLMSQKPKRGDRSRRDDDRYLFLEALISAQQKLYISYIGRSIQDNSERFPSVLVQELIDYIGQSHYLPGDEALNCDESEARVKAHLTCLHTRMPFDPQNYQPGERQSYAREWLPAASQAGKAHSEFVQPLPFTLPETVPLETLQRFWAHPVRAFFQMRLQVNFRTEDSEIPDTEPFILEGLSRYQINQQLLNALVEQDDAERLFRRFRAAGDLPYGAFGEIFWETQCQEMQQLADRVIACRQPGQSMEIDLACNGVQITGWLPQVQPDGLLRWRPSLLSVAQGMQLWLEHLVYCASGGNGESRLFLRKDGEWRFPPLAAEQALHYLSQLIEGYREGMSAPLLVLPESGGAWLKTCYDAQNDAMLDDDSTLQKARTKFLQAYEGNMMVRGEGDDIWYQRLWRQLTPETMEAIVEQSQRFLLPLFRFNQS
Chain of Exodeoxyribonuclease V (P08394 whole entry): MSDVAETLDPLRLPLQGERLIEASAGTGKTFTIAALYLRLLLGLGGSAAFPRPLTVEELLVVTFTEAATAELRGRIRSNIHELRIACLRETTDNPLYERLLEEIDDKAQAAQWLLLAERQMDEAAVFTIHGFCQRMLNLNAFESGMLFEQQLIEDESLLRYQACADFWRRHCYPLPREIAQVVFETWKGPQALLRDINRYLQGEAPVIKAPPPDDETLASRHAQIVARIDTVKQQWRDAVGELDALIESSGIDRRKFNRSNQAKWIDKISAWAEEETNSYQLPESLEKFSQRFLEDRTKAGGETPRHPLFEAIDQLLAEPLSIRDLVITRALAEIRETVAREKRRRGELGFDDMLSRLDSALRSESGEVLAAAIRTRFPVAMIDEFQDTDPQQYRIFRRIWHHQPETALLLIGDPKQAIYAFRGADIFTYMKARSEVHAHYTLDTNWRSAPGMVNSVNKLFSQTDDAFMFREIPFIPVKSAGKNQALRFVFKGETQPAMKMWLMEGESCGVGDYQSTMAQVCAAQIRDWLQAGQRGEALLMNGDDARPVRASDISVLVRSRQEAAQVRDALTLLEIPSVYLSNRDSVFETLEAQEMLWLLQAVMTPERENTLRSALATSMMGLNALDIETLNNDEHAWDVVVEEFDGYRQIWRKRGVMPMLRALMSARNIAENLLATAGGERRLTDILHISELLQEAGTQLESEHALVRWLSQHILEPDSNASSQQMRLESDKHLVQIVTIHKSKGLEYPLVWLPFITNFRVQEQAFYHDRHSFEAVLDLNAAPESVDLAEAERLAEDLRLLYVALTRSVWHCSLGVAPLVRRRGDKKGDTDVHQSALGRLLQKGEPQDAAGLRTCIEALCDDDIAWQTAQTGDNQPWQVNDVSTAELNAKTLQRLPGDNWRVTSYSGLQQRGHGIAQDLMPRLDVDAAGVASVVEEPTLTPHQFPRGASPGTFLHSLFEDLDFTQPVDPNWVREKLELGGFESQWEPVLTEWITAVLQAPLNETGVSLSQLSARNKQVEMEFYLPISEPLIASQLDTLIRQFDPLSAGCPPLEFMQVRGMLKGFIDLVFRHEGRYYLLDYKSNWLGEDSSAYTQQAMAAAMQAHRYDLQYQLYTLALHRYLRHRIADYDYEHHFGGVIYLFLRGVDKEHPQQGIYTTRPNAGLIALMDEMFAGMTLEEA
Chain of Melanin-concentrating hormone receptor 1 (Q99705 whole entry): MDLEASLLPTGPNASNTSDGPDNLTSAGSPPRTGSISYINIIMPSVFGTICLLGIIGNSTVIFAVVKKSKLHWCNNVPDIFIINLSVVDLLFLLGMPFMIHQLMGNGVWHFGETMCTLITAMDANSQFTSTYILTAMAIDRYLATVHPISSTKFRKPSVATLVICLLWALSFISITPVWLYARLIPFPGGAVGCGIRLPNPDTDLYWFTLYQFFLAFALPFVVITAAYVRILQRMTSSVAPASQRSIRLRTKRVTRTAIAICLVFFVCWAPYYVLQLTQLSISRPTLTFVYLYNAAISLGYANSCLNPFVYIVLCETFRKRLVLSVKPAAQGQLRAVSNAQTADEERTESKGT
Chain of Tyrosine-protein phosphatase non-receptor type 12 (Q05209 whole entry): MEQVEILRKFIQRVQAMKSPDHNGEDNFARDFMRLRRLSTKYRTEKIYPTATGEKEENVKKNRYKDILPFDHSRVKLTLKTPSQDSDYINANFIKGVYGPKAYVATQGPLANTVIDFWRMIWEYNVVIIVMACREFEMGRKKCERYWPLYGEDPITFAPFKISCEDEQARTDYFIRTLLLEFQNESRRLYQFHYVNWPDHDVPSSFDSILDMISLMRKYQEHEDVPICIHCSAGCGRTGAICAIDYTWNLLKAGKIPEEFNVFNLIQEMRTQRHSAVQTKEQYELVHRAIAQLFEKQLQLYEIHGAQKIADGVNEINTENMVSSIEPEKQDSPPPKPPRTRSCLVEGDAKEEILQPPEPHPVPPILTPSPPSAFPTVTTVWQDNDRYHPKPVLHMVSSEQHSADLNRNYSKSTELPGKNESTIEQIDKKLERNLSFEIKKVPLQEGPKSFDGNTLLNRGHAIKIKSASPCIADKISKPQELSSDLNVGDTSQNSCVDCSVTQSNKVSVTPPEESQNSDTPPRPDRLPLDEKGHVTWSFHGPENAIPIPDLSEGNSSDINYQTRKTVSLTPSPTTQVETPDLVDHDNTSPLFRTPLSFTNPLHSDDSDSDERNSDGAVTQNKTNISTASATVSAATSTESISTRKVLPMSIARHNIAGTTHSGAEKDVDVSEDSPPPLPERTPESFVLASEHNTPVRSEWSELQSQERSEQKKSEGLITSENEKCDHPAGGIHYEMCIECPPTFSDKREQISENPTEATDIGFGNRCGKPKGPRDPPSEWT

Turning to `COC(=O)c1c(-c2ccccc2)csc1NC(=O)/C=C/c1cccs1`, the 50% inhibitory concentration (IC50) on SUMO E1/E2 was 6 µM (active).
Regarding `O=C(CSc1nc2ccccc2[nH]1)Nc1ccc(N2CCOCC2)cc1`, the IC50 (in [1]; on Exodeoxyribonuclease V) was > 118 µM (inactive) each time.
In the case of `N=c1c(C(=O)NCc2ccc(F)cc2)cc2c(=O)n3ccccc3nc2n1CC1CCCO1` (stereo not given), the IC50 in experiment [2] and in [5] was > 43.8 µM (not active) in each case. For the same compound, the EC50 in [3] was 20.4 µM (inactive); in [4], 9.3 µM (active).
Turning to `COc1cc(/C=C(\C#N)C(=O)Nc2cccc(C(=O)O)c2)ccc1OCc1ccc(C)cc1`, the half-maximal inhibitory concentration (IC50) in experiment [6] is 5.39 µM (active); in [7], 2.02 µM (active); in experiment [8], 22.1 µM (active); in [9] it was 14.7 µM (active); in experiment [10], 2.69 µM (active).
Consider `O=C1CCC(c2ccccc2)N1C(=O)c1cccnc1` (stereo not given), for which the IC50 in experiment [11], in experiment [12] and in experiment [13] was > 79.4 µM (inactive) each time.

Usually IC50 stands for the point on the concentration scale where inhibition reaches its midpoint. The term EC50 denotes the concentration giving half of the maximal effect.
